The record followed here is patent US20140057915A1, “KINASE INHIBITORS” (TOPIVERT PHARMA LIMITED, priority 2012, published 2014).

pEC50, pIC50: −log10 of the molar value.

For data set [1], the system named is BDF1 mice. Nature of the data set: TNBS-induced colitis in mice. The note with it: TNBS; 2.5 mg/kg; 2 days. It is filed as in vivo, mouse. As to the method:
(C) TNBS-Induced Colitis in Mice […] On Day 0 of the study TNBS (200 μL) is administered intra-colonically via a plastic catheter followed by BID dosing of the vehicle, reference or test compound for 2 or 4 days. During the study animals are weighed every day and stool observations are made and recorded as a score, based on stool consistency. At the time of sacrifice on Day 2 (or Day 4) the large intestine is removed and the length and weight recorded. Sections of the colon are taken for either MPO analysis to determine neutrophil infiltration or for histopathology involving scoring to determine disease severity.

Data set [2] addresses cSrc (Homo sapiens, UniProt P12931). Nature of the data set: c-Src enzyme inhibition (FRET). The format is biochemical. In outline: (§1)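 Enzyme was preincubated with test compound (added as 4, 0.4, 0.04 or 0.004 μg/mL solutions) for 2 hr at RT. FRET peptide (8 μM solution) and ATP solution (800 μM for c-Src, 60 μM for Syk) were then added for 1 hr, followed by 1 hr protease development.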

For data set [3], the target named is Syk (Homo sapiens, UniProt P43405). Nature of the data set: Syk enzyme inhibition (FRET). The format is biochemical. In outline: as §1
Data set [4] deals with T1, GSK3α (Homo sapiens, UniProt P49840). Nature of the data set: GSK 3α enzyme inhibition (FRET), Method 1. The format is biochemical. The following applies: Table 4a1. Put shortly: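 Z-LYTE FRET format. Enzyme (500 ng/mL stock) + compound (stocks 4–0.004 μg/mL), 2 hr RT; add peptide (8 μM stock) + ATP (40 μM stock), 1 hr; protease 1 hr; read donor/acceptor emission ratio.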

Data set [5] has as its system TNFα release, d-U937 cells. Nature of the data set: LPS-induced TNFα release in d-U937 cells. The following applies: Homo sapiens, dU937; relative to 10 μg/mL BIRB796; Table 4c1; read-out: LPS Induced Release of Cytokine in d-U937 Cells, TNFα REC50. The format is cell-based. In outline:
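Sandwich ELISA quantifies cytokine in supernatants after 4 hr LPS challenge (0.1 μg/mL) of PMA-differentiated (100 ng/mL, 48–72 hr) U937 macrophages given compound 2 hr beforehand. REC50 derived from concentration-response curve, inhibition calculated relative to vehicle.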

Data set [6] has as its system IL-8 release, d-U937 cells. Nature of the data set: LPS-induced IL-8 release in d-U937 cells. It is filed as cell-based. The following applies: Homo sapiens, dU937; Table 4c1; read-out: LPS Induced Release of Cytokine in d-U937 Cells, IL-8 IC50. Put shortly:
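IL-8 release after a 4 hr challenge with LPS (0.1 μg/mL, E. coli 0111:B4) following a 2 hr compound pretreatment. Cells were human U937 monocytes differentiated to macrophage-type with PMA 100 ng/mL for 48–72 hr. Relative 50% effective concentration derived from concentration–response data.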

Data set [7] relates to ICAM-1 expression, BEAS2B cells. Nature of the data set: Poly I:C-induced ICAM-1 expression in BEAS2B cells. The note with it: Homo sapiens, BEAS-2B; read-out: Poly IC induced ICAM1 in BEAS2B, IC50. It is filed as cell-based. In outline: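 Cell-based ELISA for surface ICAM-1 in human BEAS2B cells 18 h after transfection with the RNA-virus mimic poly I:C (1 μg/mL, with Oligofectamine), compounds added 2 h beforehand. OD450–655 divided by Crystal Violet OD595 per well; percent inhibition relative to vehicle.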

The subject of data set [8] is HRV16 in MRC5 cells. Nature of the data set: HRV16 induced CPE in MRC5 cells. It is filed as cell-based. The following applies: Human rhinovirus sp., HRV-16. As to the method: (j) Assessment of HRV16 Induced CPE in MRC5 Cells
MRC-5 cells are infected with HRV16 at an MOI of 1n DMEM containing 5% FCS and 1.5 mM magnesium chloride, followed by incubation for 1 hr at 33° C. to promote adsorption. The supernatants are aspirated, and then fresh media added followed by incubation for 4 days. Where appropriate, cells are pre-incubated with compound or DMSO for 2 hr, and the compounds and DMSO added again after washout of the virus.
After washing, 1% SDS in distilled water (100 μL) is added to each well, and the plates are shaken lightly for 1-2 hr prior to reading the absorbance at 660 nm. The percentage inhibition for each well is calculated. The IC50 value is calculated from the concentration-response curve generated by the serial dilutions of the test compounds.

The subject of data set [9] is d-U937 cells. Description: Cell viability: MTT assay. The note with it: 1 μg/mL. It is filed as cell-based, human. In outline:
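MTT reduction (1 h, DMSO solubilisation, A550) measured after compound treatment at 1 or 10 μg/mL of differentiated U937 cells for 4 h (5% FCS RPMI1640) or 24 h (10% FCS). Percentage viability loss computed relative to 0.5% DMSO vehicle, with increases tabulated as negative values.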

Data set [10] concerns the target T1, GSK3α. Description: GSK 3α enzyme inhibition (FRET), Method 2. The format is biochemical. The note with it: Table 4a2, different laboratory.
Data set [11] deals with IL-8 release, PBMCs. Nature of the data set: LPS-induced IL-8 release in PBMC cells. The format is cell-based. The following applies: Homo sapiens, LPS stimulated, read-out: IC50 Values for Inhibition of Cytokine Release, PBMCs, IL-8. Put shortly:
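PBMCs from healthy donors pretreated with compound for 2 h, then stimulated with 1 ng/ml LPS (E. coli 0111:B4) for 24 h at 37 °C, 5% CO2. Supernatant IL-8 and TNFα measured by sandwich ELISA with fluorescence read-out.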

For data set [12], the system named is IL-2 release, PBMCs. Nature of the data set: IL-2 release in CD3/CD28 stimulated PBMC cells. The format is cell-based. The following applies: Homo sapiens, read-out: IC50 Values for Inhibition of Cytokine Release, PBMCs, IL-2. As to the method: (§2) (c) IL-2 and IFN Gamma Release in CD3/CD28 Stimulated PBMC Cells
(§3) PBMCs from healthy subjects are separated from whole blood using a density gradient (Lymphoprep, Axis-Shield Healthcare). Cells are added to a 96 well plate pre-coated with a mixture of […] monoclonal antibodies (0.3 ug/ml eBioscience and 3 ug/ml BD Pharmingen respectively). Compound at the desired concentration is then added to the wells and the plate left for 3 days under normal tissue culture conditions. Supernatants are harvested and IL-2 and IFN gamma release determined by Sandwich ELISA (Duo-set, R&D System). The IC50 is determined from the dose response curve.

Data set [13] relates to IFN gamma release, PBMCs. Nature of the data set: IFN gamma release in CD3/CD28 stimulated PBMC cells. It is filed as cell-based. The note with it: Homo sapiens, read-out: IC50 Values for Inhibition of Cytokine Release, PBMCs, IFNγ. As to the method:
as §2, §3

The subject of data set [14] is IL-8 release, HT29 cells. Description: IL-1β-induced IL-8 release in HT29 cells. The format is cell-based. The note with it: Homo sapiens, HT-29; IL-1β stimulated; read-out: IC50 Values for Inhibition of Cytokine Release, HT29 cells, IL-8. As to the method:
(d) IL-1β-Induced IL-8 Release in HT29 Cells
HT29 cells, a human colon adenocarcinoma cell line, are plated in a 96 well plate (24 hrs) and pre-treated with compounds at the desired concentration for 2 hours before addition of 5 ng/ml of IL-1β (Abeam) for 24 hours, Supernatants are harvested for IL-8 quantification by Sandwich ELISA (Duo-set, R&D System). The IC50 is determined from the dose response curve.

In data set [15] the test system is PBMC cells. Nature of the data set: Cell mitosis assay. It is filed as cell-based. The following applies: Homo sapiens, read-out: % Inhibition of mitosis in PBMC cells at 5 μg/mL. Here is the method:
PBMCs from healthy subjects are separated from whole blood (Quintiles, London, UK) using a density gradient (Histopaque®-1077, Sigma-Aldrich, Poole, UK). The PBMCs (3 million cells per sample) are subsequently treated with 2% PHA (Sigma-Aldrich, Poole, UK) for 48 hr, followed by a 20 hr exposure to varying concentrations of test compounds. At 2 hr before collection, PBMCs are treated with demecolcine (0.1 μg/mL; Invitrogen, Paisley, UK) to arrest cells in metaphase. […] Fluorescence is observed using an ATTUNE flow cytometer (Invitrogen, Paisley, UK), gating for lymphocytes.

[16] abbreviates: Table 4a2, different laboratory.

cSrc, sequence (P12931 whole entry): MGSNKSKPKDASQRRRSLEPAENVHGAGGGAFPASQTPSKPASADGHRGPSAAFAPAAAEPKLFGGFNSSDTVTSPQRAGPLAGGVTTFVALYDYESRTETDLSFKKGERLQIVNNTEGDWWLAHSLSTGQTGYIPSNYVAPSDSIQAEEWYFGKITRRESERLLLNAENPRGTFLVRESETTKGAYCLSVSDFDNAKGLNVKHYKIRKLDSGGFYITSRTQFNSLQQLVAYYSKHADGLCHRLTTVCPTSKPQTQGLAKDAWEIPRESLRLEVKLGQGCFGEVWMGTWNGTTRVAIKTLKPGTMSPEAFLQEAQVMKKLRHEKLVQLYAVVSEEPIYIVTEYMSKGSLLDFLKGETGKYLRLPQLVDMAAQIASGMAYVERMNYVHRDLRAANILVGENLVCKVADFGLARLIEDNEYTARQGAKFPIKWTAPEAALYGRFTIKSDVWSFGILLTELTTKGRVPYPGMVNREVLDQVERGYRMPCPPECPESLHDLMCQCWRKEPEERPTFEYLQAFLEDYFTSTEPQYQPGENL
T1 sequence (P49840 whole entry): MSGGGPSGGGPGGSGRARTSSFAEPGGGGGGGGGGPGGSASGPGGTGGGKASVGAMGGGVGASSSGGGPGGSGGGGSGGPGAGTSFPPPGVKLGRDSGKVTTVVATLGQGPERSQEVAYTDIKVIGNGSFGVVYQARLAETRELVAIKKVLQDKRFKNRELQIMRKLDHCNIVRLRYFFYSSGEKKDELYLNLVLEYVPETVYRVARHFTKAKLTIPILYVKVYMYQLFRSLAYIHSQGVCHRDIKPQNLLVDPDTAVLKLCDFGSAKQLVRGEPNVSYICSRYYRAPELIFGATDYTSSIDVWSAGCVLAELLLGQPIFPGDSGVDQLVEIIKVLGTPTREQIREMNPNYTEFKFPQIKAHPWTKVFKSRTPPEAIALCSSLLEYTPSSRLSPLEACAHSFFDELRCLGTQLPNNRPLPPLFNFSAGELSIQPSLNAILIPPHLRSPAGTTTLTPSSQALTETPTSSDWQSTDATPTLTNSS

For `CCCC1O[C@@H]2C[C@H]3[C@@H]4CCC5=CC(=O)C=C[C@]5(C)[C@H]4[C@@H](O)C[C@]3(C)[C@]2(C(=O)CO)O1` (stereo partly drawn) [Budesonide, reference compound], in [1], the LP inflammation was found to be 2.5 ± 0.4 and the Ulcer grade came to 2.9 ± 0.6.
As a reminder, the pIC50 is the IC50 on a negative log10 scale, so that one unit is a factor of ten. For the compound `COc1ccc(C(=O)NCCN2CCOCC2)cc1Nc1nccc(Oc2ccc(NC(=O)Nc3cc(C(C)C)nn3-c3ccc(C)cc3)c3ccccc23)n1` [Example 30, 3-((4-((4-(3-(3-isopropyl-1-(p-tolyl)-1H-pyrazol-5-yl)ureido)naphthalen-1-yl)oxy)pyrimidin-2-yl)amino)-4-methoxy-N-(2-morpholinoethyl)benzamide], the pIC50 in data set [2] (Table 4a1) is 9.00; in data set [3] (Table 4a1), 6.99; in data set [4], under 4.88; in [6] it was 8.05; in data set [7], 6.93; in [8] it was 9.37. Further, the pEC50 in data set [5] was 8.68. For the same compound, in data set [9], the “Cell viability at time point in d-U937 cells, 4 h” value is “−ve (−ve and +ve indicate that the value is below and above respectively, the no significant effect threshold, defined as 30% inhibition at 1 μg/mL at the time point indicated)”. Also, in data set [9], the “Cell viability at time point in d-U937 cells, 24 h” value was “−ve (−ve and +ve indicate that the value is below and above respectively, the no significant effect threshold, defined as 30% inhibition at 1 μg/mL at the time point indicated)”.
Turning to `Cc1ccc(-n2nc(C(C)(C)C)cc2NC(=O)Nc2ccc(Oc3ccnc(Nc4cc(C)cc(C(N)=O)c4)n3)c3ccccc23)cc1` [Example 40, 3-((4-((4-(3-(3-(tert-butyl)-1-(p-tolyl)-1H-pyrazol-5-yl)ureido)naphthalen-1-yl)oxy)pyrimidin-2-yl)amino)-5-methylbenzamide], the pIC50 in [2] (Table 4a1) was 8.52; in [3] (Table 4a1) it was 8.05; in [4] it was 5.87; in [6] it was 8.66; in data set [7], 9.15; in [8], 8.54. The pEC50 in data set [5] is 9.70. The “Cell viability at time point in d-U937 cells, 4 h” value in data set [9] is “−ve (−ve and +ve indicate that the value is below and above respectively, the no significant effect threshold, defined as 30% inhibition at 1 μg/mL at the time point indicated)”. Moreover, the “Cell viability at time point in d-U937 cells, 24 h” value in [9] was “−ve (−ve and +ve indicate that the value is below and above respectively, the no significant effect threshold, defined as 30% inhibition at 1 μg/mL at the time point indicated)”.
In the case of `C#Cc1cc(Nc2nccc(Oc3ccc(NC(=O)Nc4cc(C(C)(C)C(F)(F)F)nn4-c4ccc(C)cc4)c4ccccc34)n2)cc(C(=O)NCCN2CCOCC2)c1` [Example 76, 3-Ethynyl-N-(2-morpholinoethyl)-5-((4-((4-(3-(1-(p-tolyl)-3-(1,1,1-trifluoro-2-methylpropan-2-yl)-1H-pyrazol-5-yl)ureido)naphthalen-1-yl)oxy)pyrimidin-2-yl)amino)-benzamide], the negative logarithm of the IC50 (pIC50) in data set [2] (setting [16]) was 7.35; in data set [3] (setting [16]) it was 7.47; in data set [10], 5.75; in [11], 8.68; in data set [12], 6.73; in [13] it was 8.74. Further, the pIC50 in data set [14] is 8.52. Besides, in data set [15], the inhibition at 5 µg/mL was found to be 23%.
As to `C#Cc1cc(Nc2nccc(Oc3ccc(NC(=O)Nc4cc(C(C)(C)C)nn4-c4ccc(C)cc4)c4ccccc34)n2)cc(C(=O)N[C@H](C)CN2CCOCC2)c1` [Example 83, (R)-3-((4-((4-(3-(3-(tert-Butyl)-1-(p-tolyl)-1H-pyrazol-5-yl)ureido)naphthalen-1-yl)oxy)pyrimidin-2-yl)amino)-5-ethynyl-N-(1-morpholinopropan-2-yl)benzamide], the pIC50 in data set [2] (setting [16]) is 7.59; in data set [3] (setting [16]), 7.23; in data set [10] it was 4.93; in [11] it was 8.42; in data set [12], 6.91; in [13] it was 8.74. Further, the pIC50 in data set [14] is 8.28. The inhibition at 5 µg/mL in [15] was found to be 20.9%.
